# Assay results as given in patent US6017883A, “Composition and methods for the inhibition of phagocytes” (Research Corporation Technologies, Inc., priority 1998, dated 2000).
# Where no end group is shown, it is not given here.
# Assays:
# PMN [1] = details: pertussis toxin pretreatment of indo-loaded PMN
# PMN [2] = experiment: fMLP-induced PMN calcium transients; assay type: cell-based, human; details: pertussis toxin pretreatment of indo-loaded PMN
# PMN [3] = experiment: PMN viability by LDH release; details: concentrations that inhibited chemotaxis and oxidant production
# Protocol: PMN viability after exposure to NIP (seq id no:1) or control peptide for varying amounts of time was assessed by measuring LDH release using a commercially available kit (Sigma).
Substance,ionomycin-induced rise in cytosolic calcium (PMN [1]),rise in cytosolic calcium concentration induced by 1 μM fMLP (PMN [2]),cellular viability as determined by LDH release (PMN [3])
pertussis toxin,no effect,Attenuation,–
"REGSYFFGDNA [NIP, Arg-Glu-Gly-Ser-Tyr-Phe-Phe-Gly-Asp-Asn-Ala]",–,–,did not significantly alter cellular viability
